According to patent US20240025946A1, “Cyclic Tetrapeptides and Metal Complexes Thereof” (priority 2020, published 2024):
Numbered stars: 1 amine (or outer) side, 2 acyl side, 3 side chain; on linkers, the order of the positions; unused ones are H or OH. Square brackets hold non-standard residues; d marks the D form. Ends that are not written are not given here. SAsp = aspartic acid substituted by -SH; βAsp = O=C(O)[C@H](CC(=O)[*:2])N[*:1]; β3hE = N[C@@H](CCC(=O)O)CC(=O)O; βAla = NCCC(=O)O

What was measured:
HT-29 cells [1] = test: In vitro recovery test: Pb detoxification of poisoned human cells, crystal violet; format: cell-based; conditions: for effect of the counter cation (Ca vs. Na salt) on detoxification activity: HT-29, FIG. 2d; for Recovery HT-29 (%): highest concentration 10 mM (5 equiv.), vs poisoned untreated cells, mean, SD
Procedure: (§1) Desalted peptides were then assessed for their ability to detoxify Pb (FIGS. 2a-d). The inventors designed two assays for rapid and reliable screening of potential CAs both in vivo on bacteria and then in vitro on human cell culture. Briefly, DH5a or HT-29 cells were first exposed to Pb(NO3)2 slightly below the minimal inhibitory concentration and then treated with various concentrations of the investigated CA, ranging from 0.1 to 10 equivalents. The viability of the cells was determined by colony counting or by crystal violet (Feoktistova et al, 2016), for the bacteria and the human cells, respectively, and was compared to poisoned cells that were not treated with any CA as the negative control. […] On the other hand, testing the compounds on human cells cannot be performed with insoluble compounds but is more relevant for medicinal purposes.
96-well plates were prepared such that every well contains 10,000 cells in 100 μL medium, and the cells were allowed to adhere overnight. To all wells but the positive control, 10 μL of 22 mM Pb(NO3)2 were added (final concentration 2 mM). 10 μL of H2O was added to the positive control wells. 60 min after addition of metal, 10 μL of each solution of the examined CA (2.4, 6, 12, 24, 48, and 120 mM) were added to reach final concentrations of 0.2, 0.5, 1, 2, 4, and 10 mM (which are 0.1, 0.25, 0.5, 1, 2, and 5 equivalents, respectively). To the positive control wells containing no metal and the negative control wells containing metal but no CA, 10 μL of H2O were added. Each condition was performed in triplicates. The plates were incubated at 37° C. and 5% CO2 for an additional 23 h, after which the medium was removed, washed with fresh medium and 50 μL of crystal violet solution (0.5% crystal violet powder in 20 mL MeOH and 80 mL H2O) to each well and the plates were gently shaken (60 rpm) for 20 min. The plates were then washed with H2O until no more unbound dye was observed and allowed to dry overnight. 200 μL of MeOH were added to each well, and the plates were gently shaken (60 rpm) for 20 min, after which their absorbance at 560 nm was read with a plate reader. The recovery of each concentration of CA was calculated according to equation 2:
(§2) A[CAx]—absorbance of the pre-toxified well in the presence of X mM of CA
(§3) A[blank]—absorbance of blank wells (contain nothing)
A[NEG]—absorbance of the pre-toxified well that contains no CA
(§4) Each experiment was performed on three independent occasions. Values are mean±SD of >3 repeats each performed in triplicate.

HT-29 cells [2] = test: In vitro toxicity test, crystal violet; format: cell-based, human; conditions: HT-29, 24 h; for IC50: concentration at 50% viability, mean (SD), n.d. = not detected as it is too high
Procedure: 96-well plates were prepared such that every well contains 10,000 cells in 100 μL medium, and the cells were allowed to adhere overnight.
To all wells but the positive control, 10 μL of each solution of the examined CA (2.4, 6, 12, 24, 48, and 120 mM) were added to reach final concentrations of 0.2, 0.5, 1, 2, 4, and 10 mM. To the positive control wells, 10 μL of H2O was added. Each condition was performed in triplicates. The plates were incubated at 37° C. and 5% CO2 for 24 h, after which the medium was removed, washed with fresh medium and 50 μL of crystal violet solution (0.5% crystal violet powder in 20 mL MeOH and 80 mL H2O) to each well and the plates were gently shaken (60 rpm) for 20 min. The plates were then washed with H2O until no more unbound dye was observed and allowed to dry overnight. 200 μL of MeOH were added to each well, and the plates were gently shaken (60 rpm) for 20 min, after which their absorbance at 560 nm was read with a plate reader. The toxicity of each concentration of CA was calculated according to equation 3:
as §2, §3
A[POS]—absorbance of well that contains no CA
as §4

DH5α E. coli = test: In vivo recovery test: Pb detoxification of poisoned bacteria, colony counting; format: cell-based; conditions: for Recovery DH5α (%): highest concentration 120 mM (10 equiv.), Pb(NO3)2 12 mM, vs poisoned untreated cells, mean; for detoxification ability in poisoned E. coli (in words): compared to the benchmark compounds, FIG. 2a
Procedure: as §1
HRMS (ESI) m/z calculated for C16H26N4O4SNa^+ [M+Na]^+ 427.14442; found: 427.14447 In vivo recovery tests A single colony of DH5a E. coli WT cells was grown overnight at 37° C. and 220 rpm in Tris Minimal Medium (TMM, pH 6.0; 5 mL) without antibiotics. The culture was then diluted to an OD600 of 0.03 with additional TMM to a total volume of 5 mL, and its OD600 was monitored. Upon cell density of 0.25 (which was achieved after 3-5 h), 1 mL of the culture was transferred into a cell culture tube and was labeled as the positive control. To additional 3 mL of the culture, 36 μL of Pb(NO3)2 1 M were added (final concentration of 12 mM). Both cultures were shaken at 37° C. and 220 rpm for an additional 5 h.
Aqueous stock solutions of each CA were plated on freshly prepared agar-LB plates such that the final concentration of each compound is equal to 0.5, 1, 2, 5, and 10 equivalents, compared to the amount of Pb(NO3)2 in 50 μL pre-toxified culture. The stock solutions were prepared such that plating and equally spreading 30 μL of each solution will provide the desired amount of CA. To additional two plates, 30 μL of H2O was added.
50 μL of the pre-toxified culture were homogenously spread to each CA-containing plate, 5 h after adding the metal to the culture. The Pb-containing culture was also plated on one of the two H2O-containing plates and was labeled as the negative control. Lastly, 50 μL of the non-toxified culture were platted on the second H2O-containing plate and was labeled as positive control. All plates (positive and negative control and five plates for each examined compound) were then incubated at 37° C. overnight. The plates were then imaged, and the colonies were counted (with Vilber Quantum Visualization System). The recovery of each concentration of CA was calculated according to equation 1: […]
#CAx—number of colonies of pre-toxified culture in a plate containing X mM of CA
#NEG—number of colonies of pre-toxified culture in a plate containing no CA
as §4

[3] = Aqueous solubility of the peptides; format: physicochemical
Source text: Attempts to solubilize them, including in different pH conditions, formulation with PEG or co-solvent systems with DMSO failed. Therefore, two analogs of 1 where βAla is substituted by PAsp or PhGlu, to form peptides 1a and 1b, respectively, were synthesized. […] Their low activity might be related to either (a) competition in coordination with Pb^2+ by the two carboxylates, which destabilizes the complexation, or (b) a decrease in their metal selectivity and coordination alkali or alkaline earth metal ions.

male mice (C57BL/6) = test: Pb-poisoned mice: blood lead level and urinary Pb by ICP-MS; format: in vivo; conditions: for BLL / Urinary Pb (ppm): 30 mg kg^−1 day^−1, days 10-16; for BLL: blood on day 18, eight mice; for Urinary Pb (ppm): urine on day 18
Procedure: Peptide 8a was then tested in mice. 40 male mice (C57BL/6) aged 6-8 weeks were provided with 20 mM Pb(OAc)2 solution as the sole water supply for seven days (days 1-7). This poisoning route mimics chronic exposure in humans. Two days after returning to clean water (day 9), they were randomly divided into five groups of eight mice. They received a single treatment per day for seven days (days 10-16) of either CaNa2EDTA, DMSA, or 8a at a concentration of 30 mg kg^−1 except for group 1 that served as the negative control (Table 3).
Blood samples (100 μL) were collected before dosing the mice on days 10-15 and on day 18, which is two days after the last dosing and the day by which the experiment was terminated. Urine was also collected from 34 animals on day 18 and was kept frozen until analysis.

[4] = inhibition at the highest concentration (10 mM), mean, SD
[5] = also different pH, PEG formulation, DMSO co-solvent failed
[6] = soluble^b = with the addition of 2 equiv. NaOH or 1 equiv. of Ca(OH)2

Row | Compound | Recovery HT-29 (%) (HT-29 cells [1]; Pb(NO3)2 2 mM) | Recovery DH5α (%) (DH5α E. coli) | Toxicity Maximal inhibition (%) (HT-29 cells [2]; [4]) | Aqueous solubility [3, 6] | detoxification ability in poisoned E. coli (in words) (DH5α E. coli) | also measured
1 | O=C(O)CN(CCN(CC(=O)O)CC(=O)O)CC(=O)O [EDTA, ethylenediaminetetraacetic acid] |  |  |  |  |  | effect of the counter cation (Ca vs. Na salt) on detoxification activity (HT-29 cells [1]): higher activity as a Ca-salt
2 | N[C@@H](CCC(=O)N[C@@H](CS)C(=O)NCC(=O)O)C(=O)O [GSH, glutathione] | 126% | 39% |  |  |  | IC50 (HT-29 cells [2]; Homo sapiens): 9.6 mM; inhibition at 10000 µM (HT-29 cells [2]; Homo sapiens, inhibition at the highest concentration (10 mM), mean, SD, read-out: Toxicity Maximal inhibition (%)): 57%
3 | O=C([O-])CN(CCN(CC(=O)[O-])CC(=O)O)CC(=O)O.[Na+].[Na+] [Na2EDTA] | 41% | 107% | 72% |  |  | IC50 (HT-29 cells [2]): 0.6 mM
4 | O=C1CCNC(=O)[C@H](CS)NC(=O)CCNC(=O)[C@H](CS)N1 [compound 1, Cys-βAla-Cys-βAla] |  |  |  | insoluble | outstanding results | Aqueous solubility [3, 5]: low aqueous solubility; increase of recovery of poisoned E. coli (DH5α E. coli; DH5α, treatment after Pb(NO3)2): more than 8 fold
5 | CSCC[C@@H]1NC(=O)CCNC(=O)[C@H](CCSC)NC(=O)CCNC1=O [compound 3, Met-βAla-Met-βAla] |  | 139% |  | insoluble |  | 
6 | O=C1CCNC(=O)[C@H](Cc2c[nH]cn2)NC(=O)CCNC(=O)[C@H](Cc2c[nH]cn2)N1 [compound 4, His-βAla-His-βAla] | 106% | 80% | 62% | Soluble |  | IC50 (HT-29 cells [2]): 5.8 mM
7 | O=C(O)C[C@@H]1NC(=O)CCNC(=O)[C@H](CC(=O)O)NC(=O)CCNC1=O [compound 5, Asp-βAla-Asp-βAla] | 121% | 150% | 44% | soluble^b |  | 
8 | CSCC[C@@H]1NC(=O)CCNC(=O)[C@H](CS)NC(=O)CCNC1=O [compound 6, Cys-βAla-Met-βAla] |  |  |  | insoluble | outstanding results | Aqueous solubility [3, 5]: low aqueous solubility
9 | O=C1CCNC(=O)[C@H](Cc2c[nH]cn2)NC(=O)CCNC(=O)[C@H](CS)N1 [compound 7, Cys-βAla-His-βAla] |  | 47% |  | insoluble |  | 
10 | O=C1CCNC(=O)[C@H](Cc2ccccc2)NC(=O)CCNC(=O)[C@H](CS)N1 [compound 9, Cys-βAla-Phe-βAla] |  | 180% |  | insoluble |  | 
11 | O=C1CCNC(=O)[C@@H](CS)NC(=O)CCNC(=O)[C@H](CS)N1 [peptide 2, Cys-βAla-DCys-βAla] |  |  |  | insoluble | outstanding results | Aqueous solubility [3, 5]: low aqueous solubility
12 | C[βAsp]C[βAsp] (cysteine pairing not given here) [1a] | 106% | 2% | 0% | soluble^b | unsatisfied | solubility as Na or Ca salts [3]: high solubility
13 | [Cys-βhGlu]2 (C[β3hE]C[β3hE]; not fully specified (bridges); printed as [Cys-βhGlu]2; also: cyclic, ring type not given here) [1b, cyclic tetrapeptide] |  | 30% |  | soluble^b | unsatisfied | solubility as Na or Ca salts [3]: high solubility
14 | cyc-[SAsp-βAla-Asp-βAla] (cyclo([SAsp][βAla]D[βAla])) [8a] |  |  |  |  |  | dose-dependent recovery of HT-29 cells (in words) (HT-29 cells [1]; Pb(NO3)2 2 mM, CA added 1 h later, vs all investigated peptides and standards of care, FIG. 4): best results; removal of Pb in urine compared with the SOCs (male mice (C57BL/6); IV and oral, vs CaNa2EDTA and DMSA, day 18): 1.3-2.2 folds; BLL (male mice (C57BL/6); IV): 16.0 ± 1.5 µg/dL; Urinary Pb (ppm) (male mice (C57BL/6); IV): 452 ± 47 ppm; Pb expelled in urine compared with the untreated group (male mice (C57BL/6); IV, day 18): 2.9 folds; reduction of average BLL compared to no treatment (male mice (C57BL/6); IV, day 18): 2.1 folds; reduction of average BLL compared with CaNa2EDTA (male mice (C57BL/6); IV, day 18): 1.6 folds; BLL (male mice (C57BL/6); Oral): 17.7 ± 1.3 µg/dL; Urinary Pb (ppm) (male mice (C57BL/6); Oral): 435 ± 28 ppm; Pb expelled in urine compared with the untreated group (male mice (C57BL/6); oral, day 18): 2.8 folds; reduction of BLL compared with DMSA (male mice (C57BL/6); oral, day 18): 1.3 folds; reduction of BLL compared with no treatment (male mice (C57BL/6); oral, day 18): 1.9 folds
15 | cyc[Cys-βAla-Asp-βAla] [peptide 8] |  | 279% | 15±5% | soluble^b | outstanding results | effect of the counter cation (Ca vs. Na salt) on detoxification activity (HT-29 cells [1]): barely affected by the counter cation
